Test results taken from US9981944B2, “GDF-8 inhibitors” (Rigel Pharmaceuticals, Inc., priority 2015, dated 2018).

Columns and labels:
HIS-TGFβR1 T204D = HIS-TGFβR1 T204D (Homo sapiens (Human), UniProt P36897, T204D); experiment: HTRF probe displacement assay, HIS-TGFβR1 T204D; type: binding; conditions: 1 nM HIS-TGFβR1 T204D, 1 hour at room temperature, read-out: TGFBR1T204D IC50
Experimental: (§1) Compounds were dissolved at 10 mM in dimethylsulfoxide (DMSO) and evaluated at eleven concentrations. IC50 values were derived by non-linear regression analysis.

HIS-TGFβR2 WT = HIS-TGFβR2 WT (Homo sapiens (Human), UniProt P37173); experiment: HTRF probe displacement assay, HIS-TGFβR2 WT; type: binding; conditions: 1 nM HIS-TGFβR2 WT, 1 hour at room temperature, read-out: TGFBR2WT IC50
Chain of HIS-TGFβR2 WT (P37173 23-567): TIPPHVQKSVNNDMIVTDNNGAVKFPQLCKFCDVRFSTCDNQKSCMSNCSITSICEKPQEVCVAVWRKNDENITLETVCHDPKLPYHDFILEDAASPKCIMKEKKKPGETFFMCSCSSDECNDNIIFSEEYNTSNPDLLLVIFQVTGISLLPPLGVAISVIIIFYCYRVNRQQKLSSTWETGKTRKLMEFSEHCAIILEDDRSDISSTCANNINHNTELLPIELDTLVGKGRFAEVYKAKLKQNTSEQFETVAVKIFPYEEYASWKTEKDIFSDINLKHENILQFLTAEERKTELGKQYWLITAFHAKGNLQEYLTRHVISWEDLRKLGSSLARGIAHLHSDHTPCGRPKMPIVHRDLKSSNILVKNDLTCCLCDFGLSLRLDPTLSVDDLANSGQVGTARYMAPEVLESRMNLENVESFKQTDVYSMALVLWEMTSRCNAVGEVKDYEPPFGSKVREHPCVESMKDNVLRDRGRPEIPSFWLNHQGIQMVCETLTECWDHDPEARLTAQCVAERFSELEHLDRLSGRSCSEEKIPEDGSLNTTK
Experimental: as §1

Chain of HIS-TGFβR1 T204D (P36897 34-503 T204D): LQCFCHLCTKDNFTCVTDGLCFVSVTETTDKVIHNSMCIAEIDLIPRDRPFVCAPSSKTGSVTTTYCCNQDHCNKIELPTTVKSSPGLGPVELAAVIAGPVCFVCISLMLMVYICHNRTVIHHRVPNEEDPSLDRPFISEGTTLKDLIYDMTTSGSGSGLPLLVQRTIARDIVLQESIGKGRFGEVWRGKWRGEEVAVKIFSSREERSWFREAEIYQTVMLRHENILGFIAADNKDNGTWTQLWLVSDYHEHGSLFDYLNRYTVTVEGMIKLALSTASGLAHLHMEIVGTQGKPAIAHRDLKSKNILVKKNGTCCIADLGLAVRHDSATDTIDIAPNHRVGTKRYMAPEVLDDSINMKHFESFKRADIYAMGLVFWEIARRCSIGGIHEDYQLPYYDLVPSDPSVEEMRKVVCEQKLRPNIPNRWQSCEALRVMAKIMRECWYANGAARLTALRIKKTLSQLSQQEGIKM

IC50 (HIS-TGFβR1 T204D) | IC50 (HIS-TGFβR2 WT) | Compound
14 nM | > 15000 nM | CCOC(=O)c1cnn2ccc(-c3cccnc3-c3ccc(F)c(C)n3)nc12 [Compound 130, ethyl 5-(5′-fluoro-6′-methyl-[2,2′-bipyridin]-3-yl)pyrazolo[1,5-a]pyrimidine-3-carboxylate]
43 nM | > 15000 nM | COc1cccc(-c2ncccc2-c2ccc3ncc(C#N)n3n2)n1 [Compound 50, 6-(6′-methoxy-[2,2′-bipyridin]-3-yl)imidazo[1,2-b]pyridazine-3-carbonitrile]
4 nM | > 15000 nM | Cc1nc(-c2ncccc2-c2ccc3ncnc(N)c3n2)ccc1F [Compound 103, 6-(5′-fluoro-6′-methyl-[2,2′-bipyridin]-3-yl)pyrido[3,2-d]pyrimidin-4-amine]
9 nM | > 15000 nM | CCc1cccc(-c2ncccc2-c2ccc3ncnc(N)c3c2)n1 [Compound 107, 6-(6′-ethyl-[2,2′-bipyridin]-3-yl)quinazolin-4-amine]
32 nM | > 15000 nM | Cc1nc(-c2ncccc2-c2ccc3ncc(C#N)n3n2)ccc1F [Compound 61, 6-(5′-fluoro-6′-methyl-[2,2′-bipyridin]-3-yl)imidazo[1,2-b]pyridazine-3-carbonitrile]
2 nM | > 15000 nM | Nc1ncnc2ccc(-c3cccnc3-c3cccc(C(F)F)n3)cc12 [Compound 109, 6-(6′-(difluoromethyl)-[2,2′-bipyridin]-3-yl)quinazolin-4-amine]
563 nM | > 15000 nM | CC(C)c1cccc(-c2ncccc2-c2ccc3ncc(C(N)=O)n3n2)n1 [Compound 64, 6-(6′-isopropyl-[2,2′-bipyridin]-3-yl)imidazo[1,2-b]pyridazine-3-carboxamide]
5300 nM | > 15000 nM | Cc1ccc(-c2ncccc2-c2ccc3ncc(C(N)=O)n3n2)nc1 [Compound 56, 6-(5′-methyl-[2,2′-bipyridin]-3-yl)imidazo[1,2-b]pyridazine-3-carboxamide]
254 nM | > 15000 nM | NC(=O)c1cnc2ccc(-c3cccnc3-c3ccc(F)cn3)nn12 [Compound 54, 6-(5′-fluoro-[2,2′-bipyridin]-3-yl)imidazo[1,2-b]pyridazine-3-carboxamide]
397 nM | > 15000 nM | N#Cc1cnc2ccc(-c3cccnc3-c3cccc(F)n3)nn12 [Compound 65, 6-(6′-fluoro-[2,2′-bipyridin]-3-yl)imidazo[1,2-b]pyridazine-3-carbonitrile]
30 nM | > 15000 nM | NC(=O)c1cnc2ccc(-c3cccnc3-c3cccc(C(F)F)n3)nn12 [Compound 52, 6-(6′-(difluoromethyl)-[2,2′-bipyridin]-3-yl)imidazo[1,2-b]pyridazine-3-carboxamide]
– | > 15000 nM | NC(=O)c1cnc2ccc(-c3cccnc3-c3ccc(F)c(C(F)F)n3)cn12 [Compound 24, 6-(6′-(difluoromethyl)-5′-fluoro-[2,2′-bipyridin]-3-yl)imidazo[1,2-a]pyridine-3-carboxamide]
2 nM | – | Cc1nc(-c2ncc(F)cc2-c2ccc3ncc(C(N)=O)n3c2)ccc1F [Compound 85, 6-(5,5′-difluoro-6′-methyl-[2,2′-bipyridin]-3-yl)imidazo[1,2-a]pyridine-3-carboxamide]
1 nM | – | Cc1nc(-c2ncccc2-c2ccc3ncc(C(N)=O)n3c2)ccc1F [Compound 19, 6-(5′-fluoro-6′-methyl-[2,2′-bipyridin]-3-yl)imidazo[1,2-a]pyridine-3-carboxamide]

The next lines start with the compound.

Compound | IC50 (HIS-TGFβR1 T204D) | IC50 (HIS-TGFβR2 WT)
CC(=O)Nc1ccnc(-c2cccc(C)n2)c1-c1ccc2ncc(C#N)n2c1 [Compound 100, N-(3-(3-cyanoimidazo[1,2-a]pyridin-6-yl)-6′-methyl-[2,2′-bipyridin]-4-yl)acetamide] | 11100 nM | > 15000 nM
CNC(=O)c1cnn2ccc(-c3cccnc3-c3cccc(C(F)(F)F)n3)nc12 [Compound 125, N-methyl-5-(6′-(trifluoromethyl)-[2,2′-bipyridin]-3-yl)pyrazolo[1,5-a]pyrimidine-3-carboxamide] | 339 nM | > 15000 nM
O=C(NC1CC1)c1cnn2ccc(-c3cccnc3-c3cccc(C(F)(F)F)n3)nc12 [Compound 126, N-cyclopropyl-5-(6′-(trifluoromethyl)-[2,2′-bipyridin]-3-yl)pyrazolo[1,5-a]pyrimidine-3-carboxamide] | 94 nM | > 15000 nM
NC(=O)c1cnc2ccc(-c3cccnc3-c3cccc(F)n3)cn12 [Compound 37, 6-(6′-fluoro-[2,2′-bipyridin]-3-yl)imidazo[1,2-a]pyridine-3-carboxamide] | 4 nM | –
FC(F)c1cccc(-c2ncccc2-c2ccc3[nH]nc(C(F)F)c3c2)n1 [Compound 118, 3-(difluoromethyl)-5-(6′-(difluoromethyl)-[2,2′-bipyridin]-3-yl)-1H-indazole] | 427 nM | > 15000 nM
Cc1cccc(-c2ncccc2-c2ccc3ncc(C(=O)NC4CC4)n3n2)n1 [Compound 75, N-cyclopropyl-6-(6′-methyl-[2,2′-bipyridin]-3-yl)imidazo[1,2-b]pyridazine-3-carboxamide] | 25 nM | > 15000 nM
Cc1cccc(-c2nccc(N)c2-c2ccc3ncc(C(N)=O)n3c2)n1 [Compound 101, 6-(4-amino-6′-methyl-[2,2′-bipyridin]-3-yl)imidazo[1,2-a]pyridine-3-carboxamide] | 5 nM | > 15000 nM
Cc1cccc(-c2ncccc2-c2ccc3ncc(C(=O)NC4COC4)n3n2)n1 [Compound 74, 6-(6′-methyl-[2,2′-bipyridin]-3-yl)-N-(oxetan-3-yl)imidazo[1,2-b]pyridazine-3-carboxamide] | 108 nM | > 15000 nM
Cc1ccc(-c2ccc3ncc(C(N)=O)n3c2)c(-c2cccc(C(F)F)n2)n1 [Compound 88, 6-(6′-(difluoromethyl)-6-methyl-[2,2′-bipyridin]-3-yl)imidazo[1,2-a]pyridine-3-carboxamide] | 13 nM | > 15000 nM
CC(C)c1cccc(-c2ncccc2-c2ccc3ncc(C#N)n3n2)n1 [Compound 63, 6-(6′-isopropyl-[2,2′-bipyridin]-3-yl)imidazo[1,2-b]pyridazine-3-carbonitrile] | 1950 nM | > 15000 nM
Cc1cccc(-c2ncccc2-c2ccc3ncc(C(=O)NCC(F)(F)F)n3c2)n1 [Compound 69, 6-(6′-methyl-[2,2′-bipyridin]-3-yl)-N-(2,2,2-trifluoroethyl)imidazo[1,2-a]pyridine-3-carboxamide] | 7 nM | > 15000 nM
Cc1cccc(-c2ncccc2-c2ccc3ncc(NC(=O)C(F)(F)F)n3c2)n1 [Compound 66, 2,2,2-trifluoro-N-(6-(6′-methyl-[2,2′-bipyridin]-3-yl)imidazo[1,2-a]pyridin-3-yl)acetamide] | 37 nM | > 15000 nM
N#Cc1cnc2ccc(-c3cccnc3-c3cccc(OCc4ccccc4)n3)cn12 [Compound 38, 6-(6′-(benzyloxy)-[2,2′-bipyridin]-3-yl)imidazo[1,2-a]pyridine-3-carbonitrile] | 1920 nM | > 15000 nM
CCOC(=O)c1cnn2ccc(-c3cccnc3-c3cccc(C(F)F)n3)nc12 [Compound 134, ethyl 5-(6′-(difluoromethyl)-[2,2′-bipyridin]-3-yl)pyrazolo[1,5-a]pyrimidine-3-carboxylate] | 28 nM | > 15000 nM
FC(F)c1cccc(-c2ncccc2-c2ccc3[nH]ncc3c2)n1 [Compound 115, 5-(6′-(difluoromethyl)-[2,2′-bipyridin]-3-yl)-1H-indazole] | 3 nM | > 15000 nM
COc1cccc(-c2ncccc2-c2ccc3ncc(C(N)=O)n3c2)n1 [Compound 33, 6-(6′-methoxy-[2,2′-bipyridin]-3-yl)imidazo[1,2-a]pyridine-3-carboxamide] | 1 nM | –
N#Cc1cnc2ccc(-c3cccnc3-c3cc(F)ccn3)nn12 [Compound 59, 6-(4′-fluoro-[2,2′-bipyridin]-3-yl)imidazo[1,2-b]pyridazine-3-carbonitrile] | 918 nM | > 15000 nM
NC(=O)c1cnc2ccc(-c3cccnc3-c3ccc(F)cn3)cn12 [Compound 21, 6-(5′-fluoro-[2,2′-bipyridin]-3-yl)imidazo[1,2-a]pyridine-3-carboxamide] | 5 nM | –
NC(=O)c1cnc2ccc(-c3cccnc3-c3cc(F)ccn3)cn12 [Compound 22, 6-(4′-fluoro-[2,2′-bipyridin]-3-yl)imidazo[1,2-a]pyridine-3-carboxamide] | 5 nM | –
Cc1cccc(-c2ncc(N)cc2-c2ccc3ncc(C(=O)O)n3c2)n1 [Compound 99, 6-(5-amino-6′-methyl-[2,2′-bipyridin]-3-yl)imidazo[1,2-a]pyridine-3-carboxylic acid] | 4 nM | –
NC(=O)c1cnc2ccc(-c3cccnc3-c3ccccn3)cn12 [Compound 39, 6-([2,2′-bipyridin]-3-yl)imidazo[1,2-a]pyridine-3-carboxamide] | 6 nM | –
Cc1cccc(-c2ncc(F)cc2-c2ccc3ncc(C(N)=O)n3c2)n1 [Compound 82, 6-(5-fluoro-6′-methyl-[2,2′-bipyridin]-3-yl)imidazo[1,2-a]pyridine-3-carboxamide] | 1 nM | –
CCc1cccc(-c2ncccc2-c2ccc3ncc(C#N)n3c2)n1 [Compound 30, 6-(6′-ethyl-[2,2′-bipyridin]-3-yl)imidazo[1,2-a]pyridine-3-carbonitrile] | – | > 15000 nM
Cc1cccc(-c2ncc(N)cc2-c2ccc3ncc(C(N)=O)n3c2)n1 [Compound 98, 6-(5-amino-6′-methyl-[2,2′-bipyridin]-3-yl)imidazo[1,2-a]pyridine-3-carboxamide] | 2 nM | –
CC(=O)Nc1cnc(-c2cccc(C)n2)c(-c2ccc3ncc(C(N)=O)n3c2)c1 [Compound 97, 6-(5-acetamido-6′-methyl-[2,2′-bipyridin]-3-yl)imidazo[1,2-a]pyridine-3-carboxamide] | 5 nM | –
